The values below come from paper PMC8780855, “Synthesis, Crystallographic, Quantum Chemical, Antitumor, and Molecular Docking/Dynamic Studies of 4-Hydroxycoumarin-Neurotransmitter Derivatives” (International Journal of Molecular Sciences, 2022).

pIC50: −log10 of the molar value. Like-named read-outs stand apart in the source and are kept apart here.

The test system of one test is MRC-5 cells. Nature of the test: MTT cytotoxicity assay, MRC-5 healthy fibroblasts. Type of test: cell-based. The following applies: Homo sapiens. How it is done: (§1) The in vitro cytotoxic activity of the tested compounds was investigated on four model systems: human colorectal carcinoma HCT-116, human breast cancer MDA-MB-231, human cervical cancer HeLa, and human healthy fibroblast MRC-5 cell lines. The cell lines of low passages were purchased from ECACC and were cultivated in Dulbecco’s Modified Eagle Medium (DMEM; Sigma-Aldrich, Germany, D5796) supplemented with 10% fetal bovine serum (Sigma-Aldrich, F4135-500ML) and 1% penicillin/streptomycin (Sigma-Aldrich, P4333-100ML) in 75 cm^2 culture flasks. The cells were harvested in an incubator under a humidified atmosphere with 5% CO2 at a physiological temperature of 37 °C, and after a few passages and a confluence of about 90%, the cells were used for the MTT assay.
(§2) The capacity of tested compounds to prevent the growth of four different cell lines was assessed by a standardized MTT assay (Laboratory for Bioengineering protocol CB-005, Kragujevac, Serbia), based on spectrophotometric measurement of the reduction of 3-(4,5-dimethylthiazol-2-yl)-2,5-diphenyltetrazolium bromide (MTT, Acros Organics, NJ, USA 158990010) to purple formazan crystals subsequently dissolved in dimethyl sulfoxide (DMSO; Fisher Chemical, IL, USA D/4121/PB15). A number of 1 × 10^4 cells per well (in 96-well microplates) were seeded and maintained in an incubator for 24 h to allow for cell attachment. After the incubation period, the cells were treated with the investigated compounds in the concentration range from 0.1 to 500 µM dissolved in DMEM. Cytotoxic effect was calculated 24 and 72 h from treatment by determination of the number of viable cells. The absorbance measured at 550 nm and was performed on a microplate reader (Rayto 2100C, China). The cytotoxicity was derived as the ratio of the absorbance of the treated cells divided with the absorbance of negative control (untreated cells) and multiplied by 100 to obtain the percentage of the viable cells.
On the technique in general: Tetrazolium assays rely on reduction of a dye to a coloured formazan, in cell work by metabolically active cells.

The next test relates to MDA-MB-231 cells. The test is described as follows: MTT cytotoxicity assay, MDA-MB-231. Type of test: cell-based. The settings on record: Homo sapiens. As for the experimental part:
as §1, §2

The next test concerns HeLa cells. Nature of the test: MTT cytotoxicity assay, HeLa. It is filed as cell-based, human. The following applies: for pIC50: Homo sapiens, HeLa, MTT; for Selectivity index HeLa/MRC-5 24 h: SI between HeLa and MRC-5, 24 h; for Selectivity index HeLa/MRC-5 72 h: SI between HeLa and MRC-5, 72 h. As for the experimental part: as §1, §2
For a further test, the system named is HCT-116 cells. The test is described as follows: MTT cytotoxicity assay, HCT-116. Type of test: cell-based, human. The settings on record: for pIC50: Homo sapiens, MTT; for Selectivity index HCT-116/MRC-5 24 h: SI between HCT-116 and MRC-5, 24 h; for Selectivity index HCT-116/MRC-5 72 h: SI between HCT-116 and MRC-5, 72 h. As for the experimental part:
as §1, §2

Setting [1] is: MRC5, MRC-5, 72 h exposure, read-out: IC50 MRC-5 72 h.
Where [2] appears, read: MRC5, read-out: IC50 MRC-5 24 h, MRC-5, 24 h exposure.
The mark [3] stands for this setting: MDA-MB-231, 72 h exposure, read-out: IC50 MDA-MB-231 72 h.
Where [4] appears, read: read-out: IC50 MDA-MB-231 24 h, MDA-MB-231, 24 h exposure.
Where [5] appears, read: read-out: IC50 HeLa 24 h, 24 h exposure.
Setting [6] is: 72 h exposure, read-out: IC50 HeLa 72 h.
[7] abbreviates: read-out: IC50 HCT-116 24 h, HCT-116, 24 h exposure.
The mark [8] stands for this setting: HCT-116, 72 h exposure, read-out: IC50 HCT-116 72 h.

In the case of `C/C(NCCc1ccc(O)cc1)=C1\C(=O)Oc2ccccc2C1=O` [L1, (E)-3-(1-((4-hydroxyphenethyl)amino)ethylidene)chromane-2,4-dione], the pIC50 is less than 3.30 in the test on MRC-5 cells (setting [1]); less than 3.30 with MRC-5 cells (setting [2]); less than 3.30 with MDA-MB-231 cells (setting [3]); less than 3.30 with MDA-MB-231 cells (setting [4]); less than 3.30 with HeLa cells (setting [5]); 3.34 in the test on HeLa cells (setting [6]). Moreover, the results for the negative-log IC50 (pIC50) in the test with HCT-116 cells (setting [7]) and in the test on HCT-116 cells (setting [8]) were less than 3.30 and 3.77, respectively. Besides, the “Selectivity index HeLa/MRC-5 24 h” value in the test with HeLa cells is given as 1. The “Selectivity index HeLa/MRC-5 72 h” value in the test with HeLa cells stood at 1.1. For the same molecule, the “Selectivity index HCT-116/MRC-5 24 h” value in the test on HCT-116 cells was 1. Also, in the test on HCT-116 cells, the “Selectivity index HCT-116/MRC-5 72 h” value is on record as 2.9.

On to `C/C(NCC(O)c1ccc(O)cc1)=C1\C(=O)Oc2ccccc2C1=O` (stereo not drawn) [L2, (E)-3-(1-((2-hydroxy-2-(4-hydroxyphenyl)ethyl)amino)ethylidene)chromane-2,4-dione], for which the pIC50 in the test on MRC-5 cells (setting [1]) is less than 3.30; in the test with MRC-5 cells (setting [2]) it was less than 3.30; in the test with MDA-MB-231 cells (setting [3]) it was less than 3.30; in the test with MDA-MB-231 cells (setting [4]) it was less than 3.30; with HeLa cells (setting [5]) it was less than 3.30; in the test with HeLa cells (setting [6]), 3.69. Also, the pIC50 is less than 3.30 with HCT-116 cells (setting [7]) and 3.61 in the test with HCT-116 cells (setting [8]). In the test with HeLa cells, the “Selectivity index HeLa/MRC-5 24 h” value is on record as 1. Further, in the test on HeLa cells, the “Selectivity index HeLa/MRC-5 72 h” value is recorded as 2.4. In the test on HCT-116 cells, the “Selectivity index HCT-116/MRC-5 24 h” value amounted to 1. For the same molecule, the “Selectivity index HCT-116/MRC-5 72 h” value in the test on HCT-116 cells turned out to be 2.0.

In the case of `C/C(NCC(O)c1ccc(O)c(O)c1)=C1\C(=O)Oc2ccccc2C1=O` (stereo not drawn) [L3, (E)-3-(1-((2-(3,4-dihydroxyphenyl)-2-hydroxyethyl)amino)ethylidene)chromane-2,4-dione], the pIC50 in the test with MRC-5 cells (setting [1]) is less than 3.30; with MRC-5 cells (setting [2]) it was less than 3.30; in the test with MDA-MB-231 cells (setting [3]), less than 3.30; with MDA-MB-231 cells (setting [4]), less than 3.30; in the test with HeLa cells (setting [5]) it was less than 3.30; with HeLa cells (setting [6]) it was 3.31. Besides, the negative logarithm of the IC50 (pIC50) is less than 3.30 with HCT-116 cells (setting [7]) and 3.97 in the test with HCT-116 cells (setting [8]). Further, the “Selectivity index HeLa/MRC-5 24 h” value with HeLa cells turned out to be 1. Further, the “Selectivity index HeLa/MRC-5 72 h” value in the test on HeLa cells came out at 1. Also, the “Selectivity index HCT-116/MRC-5 24 h” value with HCT-116 cells was found to be 1. For the same molecule, the “Selectivity index HCT-116/MRC-5 72 h” value in the test with HCT-116 cells is on record as 4.7.

In the case of `COc1cc(CCN/C(C)=C2/C(=O)Oc3ccccc3C2=O)ccc1O` [L4, (E)-3-(1-((4-hydroxy-3-methoxyphenethyl)amino)ethylidene)chromane-2,4-dione], the pIC50 was less than 3.30 with MRC-5 cells (setting [1]); less than 3.30 with MRC-5 cells (setting [2]); less than 3.30 in the test with MDA-MB-231 cells (setting [3]); less than 3.30 with MDA-MB-231 cells (setting [4]); less than 3.30 in the test with HeLa cells (setting [5]); 3.82 with HeLa cells (setting [6]). Further, the pIC50 in the test with HCT-116 cells (setting [7]) was less than 3.30; in the test on HCT-116 cells (setting [8]) it was 4.13. In addition, the “Selectivity index HeLa/MRC-5 24 h” value with HeLa cells is 1. The “Selectivity index HeLa/MRC-5 72 h” value in the test with HeLa cells is given as 3.3. The “Selectivity index HCT-116/MRC-5 24 h” value with HCT-116 cells came to 1. Also, the “Selectivity index HCT-116/MRC-5 72 h” value in the test with HCT-116 cells is 6.8.

Regarding `CC(NCCc1ccc(O)c(O)c1)=C1C(=O)Oc2ccccc2C1=O` [L5, 3-(1-((3,4-dihydroxyphenethyl)amino)ethylidene)-chroman-2,4-dione], the pIC50 is less than 3.30 with MRC-5 cells (setting [1]); less than 3.30 in the test with MRC-5 cells (setting [2]); less than 3.30 in the test on MDA-MB-231 cells (setting [3]); less than 3.30 in the test with MDA-MB-231 cells (setting [4]); less than 3.30 with HeLa cells (setting [5]); 4.04 with HeLa cells (setting [6]). Also, the negative-log IC50 (pIC50) in the test with HCT-116 cells (setting [7]) is less than 3.30; with HCT-116 cells (setting [8]), 4.14. The “Selectivity index HeLa/MRC-5 24 h” value with HeLa cells stood at 1. Also, in the test with HeLa cells, the “Selectivity index HeLa/MRC-5 72 h” value was determined as 5.4. Also, the “Selectivity index HCT-116/MRC-5 24 h” value in the test with HCT-116 cells was found to be 1. In the test with HCT-116 cells, the “Selectivity index HCT-116/MRC-5 72 h” value worked out at 6.8.

The term pIC50 denotes −log10 of the IC50, conventionally taken in molar units.
